Read-outs that look alike come from different tables or passages of the source.
Columns and labels:
[1] = in vitro; conditions: rat, pH 7.4
[2] = Plasma and tissue pharmacokinetics following a single oral administration in male SD rat; type: in vivo
Method: Assay: Plasma and Tissue Pharmacokinetics of Example 22 Following a Single Oral Administration in Male SD Rat
Preparation of PO (10 mg/kg, 10 mL/kg) Dosing
1 mg/mL solution of 0.5% (w/v) CMC-Na, 0.1% (v/v) Tween 80 in Milli-Q Water.
Dissolved 29.68 mg of EXAMPLE 22 in 29.637 mL of 0.5% (w/v) CMC-Na, 0.1% (v/v). Tween 80 in Milli-Q Water with vortexing and sonicate to obtain a solution.
(§1) The desired serial concentrations of working solutions were achieved by diluting stock solution of analyte with 50% acetonitrile in water solution. 5 μL of working solutions (10, 20, 50, 100, 500, 1000, 5000, 10000 ng/mL) were added to 50 μL of the blank SD Rat plasma to achieve calibration standards of 1˜1000 ng/mL (1, 2, 5, 10, 50, 100, 500, 1000 ng/mL) in a total volume of 55 μL. Four quality control samples at 2 ng/mL, 5 ng/mL, 50 ng/mL and 800 ng/mL for plasma were prepared independently of those used for the calibration curves. These QC samples were prepared on the day of analysis in the same way as calibration standards.
55 μL standards, 55 μL QC samples and 55 μL unknown samples (50 μL plasma with 5 μL blank solution) were added to 200 μL of acetonitrile containing IS mixture for precipitating protein respectively. Then the samples were vortexed for 30 s. After centrifugation at 4 degree Celsius, 3900 rpm for 15 min, the supernatant was diluted 3 times with water. 20 μL of diluted supernatant was injected into the LC/MS/MS system for quantitative analysis.
as §1, with “Rat tissue (lung, brain, kidney, muscle/skeletal, spleen, heart and skin) homogenous” for “Rat plasma”, “for tissue” for “for plasma”
50 μL standards, 50 μL QC samples and 50 μL unknown samples (50 μL Tissue with 5 μL blank solution) were added to 200 μL of acetonitrile containing IS mixture for precipitating protein respectively. Then the samples were vortexed for 30 s. After centrifugation at 4 degree Celsius, 3900 rpm for 15 min, the supernatant was diluted 3 times with water. 50 μL of heart diluted supernatant and 20 μL of other tissue diluted supernatant was injected into the LC/MS/MS system for quantitative analysis.

[3] = in vitro; conditions: human
[4] = tested on: Escherichia coli WP2 uvrA (pKM101)
[5] = tested on: bleomycin-induced pulmonary fibrosis in C57BL/6 mice; test: 21-day non-GLP prophylactic bleomycin-induced pulmonary fibrosis study (oropharyngeal bleomycin; lung weight, BAL leukocytes); type: in vivo, mouse
Method: The objective of this non-GLP study was to evaluate the prophylactic efficacy of EXAMPLE 22 in a 21-day model of bleomycin-induced pulmonary fibrosis in mice.
Mice were administered bleomycin (Catalog number C-61703-323-22, lot number D011495AA, Hospira) via oropharyngeal route to induce lung fibrosis.
Bleomycin-induced animals were treated twice daily with either of the three different doses of EXAMPLE 22 or pirfenidone starting from a day prior to disease induction and continued till study termination. Study animals were harvested on day 21 post-bleomycin administration. As an end point analysis, fibrosis symptoms such as body weight, absolute lung weight, lung weight normalized to body weight, and total leukocytes in BAL fluid were evaluated and compared with vehicle-treated mice.
One week prior to study initiation, 88 C57BL/6 mice, six to eight weeks of age were obtained from Simonsen Laboratories (Gilroy, CA). Animals were weighed prior to study initiation and 60 animals were randomized into groups such that mean body weights were similar for the different groups. Remaining animals with lower or higher body weight were not included into the study. Food and water was provided ad libitum, with a light/dark cycle of 12 hours.

[6] = prophylactic treatment twice daily, 21-day

In the case of `O=C(O)C[C@H](CCN1CCCC(F)(F)C1)NC(=O)c1cc(-c2ccccc2C(F)(F)F)n(-c2nccs2)n1` [Example 22, (3S)-5-(3,3-difluoropiperidin-1-yl)-3-{[1-(1,3-thiazol-2-yl)-5-[2-(trifluoromethyl)phenyl]-1H-pyrazol-3-yl]formamido}pentanoic acid], the recovery at 6 h, 1 μM [1] is reported as 72.7%, the “4 h Conc., Brain (mean)” value ([2]; 4 h post dose) is reported as “BLQ” and the “24 h Conc., Brain (mean)” value ([2]; 24 h post dose) is reported as “BLQ”. The “24 h Conc., Heart (mean)” value ([2]; 24 h post dose) was “BLQ”, the “24 h Conc., Muscle (mean)” value ([2]; 24 h post dose) was “BLQ” and the “24 h Conc., Skin (mean)” value ([2]; 24 h post dose) was “BLQ”. The “24 h Conc., Spleen (mean)” value ([2]; 24 h post dose) was “BLQ”, the concentration at 4 h ([2]; heart, 10 mg/kg, 4 h post dose, read-out: 4 h Conc., Heart (mean)) was 28.8 ng/g and the Kp at 4 h ([2]; heart, 10 mg/kg, 4 h post dose, read-out: 4 h Tissue:Plasma Ratio, Heart) was 0.28. For the same compound, the Kp at 24 h ([2]; kidney (to plasma), 10 mg/kg, 24 h post dose, read-out: 24 h Tissue:Plasma Ratio, Kidney) was 3.47, the concentration at 4 h ([2]; kidney, 10 mg/kg, 4 h post dose, read-out: 4 h Conc., Kidney (mean)) was 305 ng/g and the Kp at 4 h ([2]; kidney, 10 mg/kg, 4 h post dose, read-out: 4 h Tissue:Plasma Ratio, Kidney) was 3.11. It also gave a concentration at 24 h ([2]; kidney, 10 mg/kg, 24 h post dose, read-out: 24 h Conc., Kidney (mean)) of 22.9 ng/g, a concentration at 4 h ([2]; lung, 10 mg/kg, 4 h post dose, read-out: 4 h Conc., Lung (mean)) of 40 ng/g and a Kp at 4 h ([2]; lung, 10 mg/kg, 4 h post dose, read-out: 4 h Tissue:Plasma Ratio, Lung) of 0.39. It also gave a concentration at 4 h ([2]; muscle (skeletal), 10 mg/kg, 4 h post dose, read-out: 4 h Conc., Muscle (mean)) of 7.3 ng/g, a Kp at 4 h ([2]; muscle (skeletal), 10 mg/kg, 4 h post dose, read-out: 4 h Tissue:Plasma Ratio, Muscle) of 0.07 and a concentration at 4 h ([2]; plasma, 10 mg/kg, 4 h post dose, read-out: 4 h Conc., Plasma (mean)) of 102 ng/mL. It also gave a concentration at 24 h ([2]; plasma, 10 mg/kg, 24 h post dose, read-out: 24 h Conc., Plasma (mean)) of 6.6 ng/mL, a concentration at 4 h ([2]; skin, 10 mg/kg, 4 h post dose, read-out: 4 h Conc., Skin (mean)) of 19.3 ng/g and a Kp at 4 h ([2]; skin, 10 mg/kg, 4 h post dose, read-out: 4 h Tissue:Plasma Ratio, Skin) of 0.19. For the same compound, the concentration at 4 h ([2]; spleen, 10 mg/kg, 4 h post dose, read-out: 4 h Conc., Spleen (mean)) was 14 ng/g, the Kp at 4 h ([2]; spleen, 10 mg/kg, 4 h post dose, read-out: 4 h Tissue:Plasma Ratio, Spleen) was 0.14 and the recovery at 6 h, 1 μM [3] was 74.4%. The “Cytotoxicity Code” value [4] was “N”, the “cytotoxicity to tester strain” value [4] was “No cytotoxicity was observed” and the “dose related increase of revertant colonies” value [4] was “No dose related increase”. For the same compound, the “increase in mean number of revertant colonies vs negative/solvent control” value ([4]; Escherichia coli) was < 2 fold, the “effectiveness compared across doses” value ([5]; 30 mg/kg) was “somewhat more effective” and the normalized lung weights ([5]; normalized to body weight, prophylactic treatment twice daily, 21-day) was “reduced absolute and normalized lung weights”. For the same compound, the absolute lung weights [5, 6] was “reduced absolute and normalized lung weights”, the “total number of leukocytes from bronchoalveolar lavage (BAL) fluid” value [5, 6] was “decreased total number of leukocytes” and the “overt symptoms associated with bleomycin administration” value ([5]; prophylactic treatment twice daily, 21-day non-GLP study) was “improved the overt symptoms”.

From patent US20240174638A1, “HETEROARYL DERIVATIVES AS APELIN RECEPTOR AGONISTS” (RESEARCH TRIANGLE INSTITUTE, priority 2021, published 2024)
